Measurements as given in patent publication US12180255B2, “Compositions and methods for derepressing RE1 silencing transcription factor target genes” (Alcamena Stem Cell Therapeutics, LLC, priority 2019, dated 2024).
“And” between values parts separate entries of the source, which are not always exact repeats. Equal values may be shown once. Where a SMILES comes first, the peptide text is derived from it. [ ]: non-standard residue; d: D form. Gly(Dodecyl) = CCCCCCCCCCCC[C@H](N)C(=O)O

Key:
[1] = biological target: T1, PPM1A (Homo sapiens, UniProt P35813); assay: Off target phosphatase activity on phosphorylated REST peptide; type: biochemical; conditions: 10000 nM RPP
T1 sequence (P35813 1-382): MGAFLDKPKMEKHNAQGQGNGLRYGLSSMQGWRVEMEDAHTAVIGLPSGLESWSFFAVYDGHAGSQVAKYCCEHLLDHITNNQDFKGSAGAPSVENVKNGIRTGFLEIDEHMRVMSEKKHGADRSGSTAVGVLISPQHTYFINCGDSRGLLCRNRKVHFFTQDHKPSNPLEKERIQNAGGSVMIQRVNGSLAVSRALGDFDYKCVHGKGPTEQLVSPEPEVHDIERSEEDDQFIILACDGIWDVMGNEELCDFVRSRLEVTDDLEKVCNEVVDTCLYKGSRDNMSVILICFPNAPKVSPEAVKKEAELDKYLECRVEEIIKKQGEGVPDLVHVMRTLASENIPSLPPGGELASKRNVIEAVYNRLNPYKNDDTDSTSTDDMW

[2] = tested on: L5 DRGs; assay: qRT-PCR mRNA expression in ex vivo cultured L5 DRGs; type: cell-based, Sprague Dawley rat; conditions: for Increase, BDNF mRNA / Increase, KV4.3 mRNA / Increase, KV7.2 mRNA / Increase, NGF mRNA / Increase, Nav1.8 mRNA / Increase, OPRM1 mRNA: DRG
Method: FIG. 15. […] Error bars =standard error of the mean.
L5 DRGs were dissected from adult male rats and plated in 12-well plates pre-coated with poly-D-Lysine (PDL) and laminin in a minimal volume of medium (250 ul Neurobasal™-A medium (GIBCO) supplemented with B27 (GIBCO), 50 ng/ml NGF (Sigma-Aldrich) and penicillin streptomycin) to allow attachment to the culture plate. One day after plating, DRGs were incubated with RPP (SEQ. ID NO: 12: 1 μM, 3 μM or 10 μM in culture medium, FIGS. 14 and 16; SEQ ID NOS: 13 and 14: 3 μM, FIG. 15) for 48 h. For RNA expression analysis, DRGs were lysed in 300 μl of Qiazol in a 1.5 ml tube containing Bullet Blender Pink Beads using a Bullet Blender Tissue Homogenizer (NextAdvance). Total RNA was extracted using RNeasy Midi Kit (Qiagen) according to manufacturer's instructions. Purified RNA was quantified with NanoDrop 2000 (ThermoFIsher), and reverse transcription was run using High Capacity cDNA Reverse Transcription Kit (Applied Biosystems) and 2 ng/ul RNA per reaction. For qRT-PCR, 5 ul of cDNA (corresponding to 10 ng of RNA) were mixed with to 10 ul SsoAdvanced™ Universal SYBR® Green Supermix (BioRad) and 1 ul of each primer (final primer concentration 500 nM each). Reactions were run in triplicates in a QuantStudio™ 7 Flex Real-Time PCR system (Applied Biosystems). Amplification data were analyzed using the comparative cycle threshold (ΔΔCt) method and β-actin as calibrator. Primers were as follows: β-actin: F-[…] (SEQ ID NO: 340), R-[…] (SEQ ID NO: 333); KV4.3: F-[…] (SEQ ID NO: 341), R-[…] (SEQ ID NO: 342); KV7.2 F-[…] AG (SEQ ID NO: 343), R-[…] (SEQ ID NO: 344); OPRM1: F-[…] (SEQ ID NO: 345), R-[…] (SEQ ID NO: 346).

[3] = biological target: T2, PP5CA (Homo sapiens, UniProt P53041); assay: Off target phosphatase activity on phosphorylated REST peptide; type: biochemical; conditions: 10000 nM RPP
T2 sequence (P53041 1-499): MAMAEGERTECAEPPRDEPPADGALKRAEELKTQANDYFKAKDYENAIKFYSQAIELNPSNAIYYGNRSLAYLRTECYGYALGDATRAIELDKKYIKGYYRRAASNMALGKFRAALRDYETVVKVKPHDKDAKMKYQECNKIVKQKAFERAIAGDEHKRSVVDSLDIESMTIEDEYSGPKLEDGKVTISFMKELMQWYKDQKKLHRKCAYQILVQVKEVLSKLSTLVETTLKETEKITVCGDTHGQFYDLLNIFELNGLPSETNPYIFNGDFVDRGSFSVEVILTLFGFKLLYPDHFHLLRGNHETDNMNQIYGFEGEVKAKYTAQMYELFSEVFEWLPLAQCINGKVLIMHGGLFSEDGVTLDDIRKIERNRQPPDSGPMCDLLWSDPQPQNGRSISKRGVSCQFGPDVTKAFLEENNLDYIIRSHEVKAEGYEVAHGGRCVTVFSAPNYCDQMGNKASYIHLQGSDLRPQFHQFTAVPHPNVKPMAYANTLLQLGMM

[4] = biological target: T3, PPA1 (Homo sapiens, UniProt Q15181); assay: as above; type: biochemical; conditions: 10000 nM RPP
T3 sequence (Q15181 2-289 limits assumed): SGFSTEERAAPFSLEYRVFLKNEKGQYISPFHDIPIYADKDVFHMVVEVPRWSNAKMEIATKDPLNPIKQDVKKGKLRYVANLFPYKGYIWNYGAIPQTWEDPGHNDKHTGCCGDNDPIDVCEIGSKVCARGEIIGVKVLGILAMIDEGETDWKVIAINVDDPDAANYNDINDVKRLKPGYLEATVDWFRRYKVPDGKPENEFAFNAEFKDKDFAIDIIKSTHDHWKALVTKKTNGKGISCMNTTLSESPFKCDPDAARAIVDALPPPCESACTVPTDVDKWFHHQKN

[5] = various concentrations, 48 h, relative to water control
[6] = whole DRG ex vivo, 3 μM, 48 hours
[7] = whole DRG ex vivo, 10 μM, 48 hours

## CCCCCCCCCCCC[C@@H]1NC(=O)[C@@H](CCCNC(=N)N)NC(=O)[C@@H](CCCNC(=N)N)NC(=O)[C@@H](Cc2c[nH]c3ccccc23)NC(=O)[C@@H](Cc2c[nH]c3ccccc23)NC(=O)[C@@H](CCCNC(=N)N)NC(=O)[C@@H](CCC(=O)O)NC(=O)[C@@H](CC(=O)O)NC(=O)[C@@H](CC(C)C)NC(=O)[C@@H](CCC(=O)O)NC(=O)[C@H]2CCCN2C(=O)[C@H]2CCCN2C(=O)[C@@H](CCC(=O)O)NC(=O)[C@H]2CCCN2C(=O)[C@H]2CCCN2C(=O)[C@@H](CC(C)C)NC(=O)[C@H]2CCCN2C(=O)[C@@H](CCCCN)NC(=O)[C@@H](CCCNC(=N)N)NC(=O)[C@@H](CCCNC(=N)N)NC(=O)[C@@H](CCCNC(=N)N)NC(=O)[C@@H](CCCNC(=N)N)NC(=O)[C@@H](CCCNC(=N)N)NC1=O [SEQ ID NO: 12] (cyclo([dR][dW][dW][dR][dR][Gly(Dodecyl)][dR][dR][dR][dR][dR][dK][dP][dL][dP][dP][dE][dP][dP][dE][dL][dD][dE]))
[1]
  % Activity (Average N = 5): 102.786%
[2]; 0.3 μM, 48 h
  Increase, BDNF mRNA: 1.4x
[2]; 1 μM, 48 h
  Increase, BDNF mRNA: 1.3x
  Increase, KV4.3 mRNA: 0x
  Increase, KV7.2 mRNA: 0 x
  Increase, NGF mRNA: No affect was observed
  Increase, Nav1.8 mRNA: 0.8x
  Increase, OPRM1 mRNA: 1.2x
[2]; 1 μM, 48 h, listed as 12
  Increase, NGF mRNA: 0.9x
[2]; 3 μM, 48 h
  Increase, BDNF mRNA: 1.3x
  Increase, KV4.3 mRNA: 0x
  Increase, KV7.2 mRNA: 6.7x
  Increase, NGF mRNA: 1.25 x
  Increase, Nav1.8 mRNA: 2.6x
  Increase, OPRM1 mRNA: 3x
[2]; 10 μM, 48 h
  Increase, BDNF mRNA: 1.7 x
  Increase, KV4.3 mRNA: 1.9x
  Increase, KV7.2 mRNA: 7.5x
  Increase, NGF mRNA: 1.9 x
  Increase, Nav1.8 mRNA: 4x
  Increase, OPRM1 mRNA: 3.9x
[2]; [5]
  mRNA expression of BDNF and NGF (in words): increases expression of BDNF and NGF
  mRNA expression of KV4.3, KV7.2, Nav1.8 and OPRM1 (in words): increases expression of KV4.3, KV7.2, Nav1.8 and OPRM1
[2]; whole DRG ex vivo, 3 μM
  increase of NGF: approximately 50%
[2]; [6]
  induction of KV4.3 compared to control: approximately 0 times
  induction of Nav1.8 compared to control: 2.9 times and ~3 times
[2]; whole DRG ex vivo, 10 μM
  increase of BDNF expression: ~75%
  increase of NGF: ~2 times
[2]; [7]
  induction of KV7.2 compared to control: 9 times and ~7 times
  induction of Nav1.8 compared to control: 4.8 times and ~5 times
[2]; whole DRG ex vivo, 0.3, 1, and 3 μM
  increase of BDNF expression: approximately 25%
[3]
  % Activity (Average N = 5): 97.902%
[4]
  % Activity (Average N = 5): 101.125%
